The numbers were not newly measured in patent US10993442B2, “Ultra-high loading glyphosate concentrate” (STEPAN COMPANY, priority 2008, dated 2021), which cites them from elsewhere.

For this data set the following is noted: for Solubility in water, glyphosate acid equivalent: as acid equivalent; for Solubility in water: as salt.

SMILES strings stand for the structures. Where a name gives a salt, the structure may show the parent alone.

For `O=C(O)CNCP(=O)(O)O` [glyphosate, N-phosphonomethylglycine], under “free acid form”, the Water solubility entry is “low”.
Consider `O=C(O)CNCP(=O)(O)O` [glyphosate potassium salt], for which the “Solubility in water, glyphosate acid equivalent” value is listed as “about 50 % by weight glyphosate acid equivalent (a.e.)” and the Solubility in water entry was “about 61 % by weight”.
Regarding `CC(C)N.O=C(O)CNCP(=O)(O)O` [isopropylamine salt of glyphosate], the “Solubility in water, glyphosate acid equivalent” value is given as “about 47 % by weight glyphosate acid equivalent (a.e.)” and the Solubility in water result is reported as “about 63 % by weight”.
